Data reported in ChEMBL document CHEMBL1681651, “A broad spectrum anticancer nucleoside with selective toxicity against human colon cells in vitro” (2011).

Key:
Assay type in all cases: functional
A549 = assay: Growth inhibition of human A549 cells assessed as cell growth at 0.1 uM after 48 hrs by SRB assay; conditions: A549, 48 h, read-out: Activity
NCI-H322M = assay: Growth inhibition of human NCI-H322M cells assessed as cell growth at 0.1 uM after 48 hrs by SRB assay; conditions: read-out: Activity
LOX IMVI = assay: Growth inhibition of human LOXIMVI cells assessed as cell growth at 1 uM after 48 hrs by SRB assay; conditions: read-out: Activity
Malme-3M [1] = assay: Growth inhibition of human MALME-3M cells after 48 hrs by […] growth inhibition assay
SK-OV-3 = assay: Growth inhibition of human SKOV3 cells assessed as cell growth at 100 uM after 48 hrs by SRB assay; conditions: SK-OV-3, 48 h, read-out: Activity
CAKI-1 [2] = assay: Growth inhibition of human Caki1 cells assessed as cell growth at 10 uM after 48 hrs by SRB assay; conditions: CAKI-1, 48 h, read-out: Activity
HCC 2998 = assay: Growth inhibition of human HCC2998 cells assessed as cell growth at 1 uM after 48 hrs by SRB assay; conditions: HCC 2998, 48 h, read-out: Activity
KM12 [3] = assay: Growth inhibition of human KM12 cells assessed as cell growth at 1 uM after 48 hrs by SRB assay; conditions: KM12, 48 h, read-out: Activity
MDA-MB-231 = assay: Growth inhibition of human MDA-MB-231 cells assessed as cell growth at 100 uM after 48 hrs by SRB assay; conditions: MDA-MB-231, 48 h, read-out: Activity
UACC-62 = assay: Growth inhibition of human UACC62 cells after 48 hrs by […] growth inhibition assay; conditions: UACC-62, 48 h
HT-29 [4] = assay: Growth inhibition of human HT-29 cells after 48 hrs by […] growth inhibition assay; conditions: HT-29, 48 h
Malme-3M [5] = assay: Growth inhibition of human MALME-3M cells assessed as cell growth at 1 mM after 48 hrs by SRB assay; conditions: read-out: Activity
HCT-15 = assay: Growth inhibition of human HCT15 cells assessed as cell growth at 100 uM after 48 hrs by SRB assay; conditions: HCT-15, 48 h, read-out: Activity
CAKI-1 [6] = assay: Growth inhibition of human Caki1 cells assessed as cell growth at 1 mM after 48 hrs by SRB assay; conditions: CAKI-1, 48 h, read-out: Activity
NCI-H460 = assay: Growth inhibition of human NCI-H460 cells after 48 hrs by […] growth inhibition assay; conditions: NCI-H460, 48 h
SNB-19 = assay: Growth inhibition of human SNB19 cells assessed as cell growth at 1 uM after 48 hrs by SRB assay; conditions: SNB-19, 48 h, read-out: Activity
HT-29 [7] = assay: Growth inhibition of human HT-29 cells assessed as cell growth at 10 uM after 48 hrs by SRB assay; conditions: HT-29, 48 h, read-out: Activity
KM12 [8] = assay: Growth inhibition of human KM12 cells after 48 hrs by […] growth inhibition assay; conditions: KM12, 48 h
NCI-H23 [9] = assay: Growth inhibition of human NCI-H23 cells assessed as cell growth at 1 uM after 48 hrs by SRB assay; conditions: NCI-H23, 48 h, read-out: Activity
NCI-H23 [10] = assay: Growth inhibition of human NCI-H23 cells after 48 hrs by […] growth inhibition assay; conditions: NCI-H23, 48 h
U-251 = assay: Growth inhibition of human U251 cells assessed as cell growth at 0.1 uM after 48 hrs by SRB assay; conditions: U-251, 48 h, read-out: Activity
SN12C = assay: Growth inhibition of human SN12C cells assessed as cell growth at 1 mM after 48 hrs by SRB assay; conditions: read-out: Activity
M14 = assay: Growth inhibition of human M14 cells assessed as cell growth at 1 uM after 48 hrs by SRB assay; conditions: M14, 48 h, read-out: Activity
NCI/ADR-RES = assay: Growth inhibition of human NCI/ADR-RES cells assessed as cell growth at 0.1 uM after 48 hrs by SRB assay; conditions: read-out: Activity
CAKI-1 [11] = assay: Growth inhibition of human Caki1 cells assessed as cell growth at 0.1 uM after 48 hrs by SRB assay; conditions: CAKI-1, 48 h, read-out: Activity
BT-549 = assay: Growth inhibition of human BT549 cells assessed as cell growth at 1 mM after 48 hrs by SRB assay; conditions: BT-549, 48 h, read-out: Activity
CCRF-CEM = assay: Growth inhibition of human CCRF-CEM cells assessed as cell growth at 1 mM after 48 hrs by SRB assay; conditions: read-out: Activity
HOP-92 = assay: Growth inhibition of human HOP92 cells assessed as cell growth at 0.1 uM after 48 hrs by SRB assay; conditions: HOP-92, 48 h, read-out: Activity
OVCAR-3 = assay: Growth inhibition of human OVCAR3 cells assessed as cell growth at 1 uM after 48 hrs by SRB assay; conditions: OVCAR-3, 48 h, read-out: Activity
EKVX = assay: Growth inhibition of human EKVX cells assessed as cell growth at 0.1 uM after 48 hrs by SRB assay; conditions: read-out: Activity
IGROV-1 = assay: Growth inhibition of human IGROV1 cells assessed as cell growth at 1 uM after 48 hrs by SRB assay; conditions: IGROV-1, 48 h, read-out: Activity
K562 = assay: Growth inhibition of human K562 cells assessed as cell growth at 10 uM after 48 hrs by SRB assay; conditions: K562, 48 h, read-out: Activity
HL-60(TB) = assay: Growth inhibition of human HL-60(TB) cells assessed as cell growth at 10 uM after 48 hrs by SRB assay; conditions: HL-60, 48 h, read-out: Activity
[12] = read-out: LC50 (the source's name)
[13] = read-out: pLC50 (the source's name) (converted)

Structure (SMILES): CNC(=O)NC[C@H]1O[C@@H](n2cnc3c(NC(=O)Nc4ccccc4)ncnc32)[C@H](O[Si](C)(C)C(C)(C)C)[C@@H]1O[Si](C)(C)C(C)(C)C
- growth at 0.1 µM (A549): 99%
- growth at 0.1 µM (NCI-H322M): 102%
- growth at 1 µM (LOX IMVI): 101%
- GI50 (Malme-3M [1]; read-out: GI50): 2.98 µM
- LC50 (concentration killing 50% of cells) (Malme-3M [1]; read-out: LC50): > 100 µM
- TGI (Malme-3M [1]; read-out: TGI): 9.84 µM
- GI50 (Malme-3M [1]; read-out: pGI50 (converted)): 2.95 µM
- LC50 (concentration killing 50% of cells) (Malme-3M [1]; read-out: pLC50 (converted)): > 100 µM
- TGI (Malme-3M [1]; read-out: pTGI (converted)): 9.77 µM
- growth at 100 µM (SK-OV-3): 39%
- growth at 10 µM (CAKI-1 [2]): 96%
- growth at 1 µM (HCC 2998): 93%
- growth at 1 µM (KM12 [3]): 111%
- growth at 100 µM (MDA-MB-231): -29%
- GI50 (UACC-62; read-out: GI50): 3.98 µM
- CC50 (UACC-62; [12]): > 100 µM
- TGI (UACC-62; read-out: TGI): 23.6 µM
- GI50 (UACC-62; read-out: pGI50 (converted)): 3.98 µM
- CC50 (UACC-62; [13]): > 100 µM
- TGI (UACC-62; read-out: pTGI (converted)): 23.4 µM
- GI50 (HT-29 [4]; read-out: GI50): 2.02 µM
- CC50 (HT-29 [4]; [12]): 6.91 µM
- TGI (HT-29 [4]; read-out: TGI): 3.73 µM
- GI50 (HT-29 [4]; read-out: pGI50 (converted)): 2 µM
- CC50 (HT-29 [4]; [13]): 6.92 µM
- TGI (HT-29 [4]; read-out: pTGI (converted)): 3.72 µM
- growth at 1000 µM (Malme-3M [5]): -48%
- growth at 100 µM (HCT-15): 11%
- growth at 1000 µM (CAKI-1 [6]): -33%
- GI50 (NCI-H460; read-out: GI50): 1.72 µM
- CC50 (NCI-H460; [12]): 7.11 µM
- TGI (NCI-H460; read-out: TGI): 3.49 µM
- GI50 (NCI-H460; read-out: pGI50 (converted)): 1.7 µM
- CC50 (NCI-H460; [13]): 7.08 µM
- TGI (NCI-H460; read-out: pTGI (converted)): 3.47 µM
- growth at 1 µM (SNB-19): 100%
- growth at 10 µM (HT-29 [7]): 107%
- GI50 (KM12 [8]; read-out: GI50): 2.13 µM
- CC50 (KM12 [8]; [12]): 8.05 µM
- TGI (KM12 [8]; read-out: TGI): 4.14 µM
- GI50 (KM12 [8]; read-out: pGI50 (converted)): 2.14 µM
- CC50 (KM12 [8]; [13]): 8.13 µM
- TGI (KM12 [8]; read-out: pTGI (converted)): 4.17 µM
- growth at 1 µM (NCI-H23 [9]): 106%
- GI50 (NCI-H23 [10]; read-out: GI50): 3.17 µM
- CC50 (NCI-H23 [10]; [12]): 86 µM
- TGI (NCI-H23 [10]; read-out: TGI): 9.07 µM
- GI50 (NCI-H23 [10]; read-out: pGI50 (converted)): 3.16 µM
- CC50 (NCI-H23 [10]; [13]): 85.1 µM
- TGI (NCI-H23 [10]; read-out: pTGI (converted)): 9.12 µM
- growth at 0.1 µM (U-251): 102%
- growth at 1000 µM (SN12C): -90%
- growth at 1 µM (M14): 107%
- growth at 0.1 µM (NCI/ADR-RES): 106%
- growth at 0.1 µM (CAKI-1 [11]): 103%
- growth at 1000 µM (BT-549): -36%
- growth at 1000 µM (CCRF-CEM): 4%
- growth at 0.1 µM (HOP-92): 85%
- growth at 1 µM (OVCAR-3): 113%
- growth at 0.1 µM (EKVX): 105%
- growth at 1 µM (IGROV-1): 99%

Structure (SMILES): CNC(=O)OC[C@H]1O[C@@H](n2cnc3c(NC(=O)Nc4ccccc4)ncnc32)[C@H](O[Si](C)(C)C(C)(C)C)[C@@H]1O[Si](C)(C)C(C)(C)C
- growth at 10 µM (CAKI-1 [2]): 106%
- growth at 10 µM (K562): 75.4%
- growth at 10 µM (HT-29 [7]): 81.3%
- growth at 10 µM (HL-60(TB)): 113%
